{"source": "patent US9260417B2", "about": "“Therapeutic methods and compositions involving allosteric kinase inhibition” (AMITECH THERAPEUTIC SOLUTIONS, INC., priority 2010, dated 2016)", "key": {"RAF1": {"biological_target": "RAF1 (Homo sapiens (Human), UniProt P04049)", "sequence (P04049 349-609)": "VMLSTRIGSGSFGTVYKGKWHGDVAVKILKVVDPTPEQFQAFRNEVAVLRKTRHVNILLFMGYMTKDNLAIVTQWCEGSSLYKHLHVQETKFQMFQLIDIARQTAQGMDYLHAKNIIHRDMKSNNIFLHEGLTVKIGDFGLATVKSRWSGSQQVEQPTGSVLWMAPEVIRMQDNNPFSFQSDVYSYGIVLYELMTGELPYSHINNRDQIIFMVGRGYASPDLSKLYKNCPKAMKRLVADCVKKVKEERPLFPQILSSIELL", "assay": "KINOMEscan competitive binding assay", "settings": "10 uM"}, "[1]": {"test_system": "XPA-1-RFP pancreatic tumor xenografts", "assay": "Orthotopic pancreatic carcinoma model", "format": "in vivo, mice", "settings": "50 mg/kg", "method": "Drug treatments were started 3 days after surgical orthotopic implantation (SOI) of XPA1-RFP tumors and tumor progression was monitored every 3 days by whole animal imaging. Scale bar=10 mm. […] Tumor surface area was calculated by adding the total pixels of both the ventral and lateral images of the tumor. *p=0.034. (FIG. 5C) Average body weight of the mice measured each day of whole animal imaging described in FIGS. 5A and 5B above. (FIG. 5D) Total weights of resected primary tumors on day 15 post (SOI), *p=0.022. (FIG. 5E) Representative fluorescent images of endothelial GFP expression (GFP expression driven by the Nestin promoter) within the XPA1-RFP tumors after resection. Images taken 15 days post SOI. Scale bar=200 μm. (FIG. 5F) Plot of tumor vessel density from images acquired as in FIG. 5E. Blood vessels imaged as in 5E were converted to length (mm) and normalized to the tumor volume (mm^3), *p=0.01.\nOrthotopic human pancreatic cancer xenografts from the pancreatic cancer cell line XPA1-RFP were established in nude mice by surgical orthotopic implantation (SOI). Briefly, subcutaneous XPA1-RFP tumors in the exponential growth phase were harvested and sectioned into 1 mm^3 pieces in serum-free RPMI medium. Mice were anesthetized using 50% ketamine, 38% xylazine and 12% agepromazine maleate injected intramuscularly at a dose of 2 μl/g, and their abdominal wall was sterilized with alcohol. A small incision was then made in the right pararectal line through the skin and peritoneum. The body of the pancreas was exposed and a 1 mm^3 tumor fragment was sutured to the pancreas using a single 8-0 nylon surgical suture (Davis-Geck, Inc. Manati, Puerto Rico). The pancreas was then returned to the abdomen and the peritoneum and skin were closed in two layers using 6-0 vicryl surgical suture.\nAt day 3 after SOL the animals began treatment with twice-daily IP injections of either compound, 6 (50 mg/kg dose in 200 μl total volume), or vehicle control at 12 hour intervals. […] At day 12 post-SOI the animals were sacrificed and their tumors were excised, weighed, and measured in 3 dimensions in order to calculate tumor volume. The tumor volume was calculated with the formula: volume=height×width×length×0.52. […] The total vessel length for each tumor was measured using Image-J software and converted to vessel density by dividing total tumor vessel length by tumor volume. […]\nRFP expressing XPA-1 pancreatic tumor xenografts were implanted into the pancreas of Nestin GFP-mice enabling detection of both developing blood vessels (GFP) and primary tumor (RFP). […] Tumor growth was monitored non-invasively by whole body imaging using the Olympus OV100 Small Animal Imaging System to detect the RFP signal from the tumor implant within the pancreas."}, "SRC": {"biological_target": "SRC (Homo sapiens (Human), UniProt P12931)", "sequence (P12931 whole entry, looked up)": "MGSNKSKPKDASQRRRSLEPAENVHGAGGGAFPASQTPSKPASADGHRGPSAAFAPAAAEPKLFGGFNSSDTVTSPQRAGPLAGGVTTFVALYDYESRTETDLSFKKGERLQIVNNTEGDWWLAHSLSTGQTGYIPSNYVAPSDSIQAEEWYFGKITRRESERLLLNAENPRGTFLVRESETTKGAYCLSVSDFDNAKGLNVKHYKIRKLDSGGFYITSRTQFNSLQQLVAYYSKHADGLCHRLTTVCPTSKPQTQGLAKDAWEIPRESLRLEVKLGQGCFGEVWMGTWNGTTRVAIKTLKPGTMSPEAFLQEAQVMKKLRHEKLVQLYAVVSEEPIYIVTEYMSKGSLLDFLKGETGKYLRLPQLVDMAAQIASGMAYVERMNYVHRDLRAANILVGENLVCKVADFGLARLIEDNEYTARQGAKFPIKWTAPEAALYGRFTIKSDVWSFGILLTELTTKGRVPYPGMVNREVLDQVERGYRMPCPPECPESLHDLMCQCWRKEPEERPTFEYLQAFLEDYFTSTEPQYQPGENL", "assay": "KINOMEscan competitive binding assay", "settings": "10 uM"}, "CDC2L2": {"biological_target": "CDC2L2 (Homo sapiens (Human), UniProt Q9UQ88)", "sequence (Q9UQ88 whole entry)": "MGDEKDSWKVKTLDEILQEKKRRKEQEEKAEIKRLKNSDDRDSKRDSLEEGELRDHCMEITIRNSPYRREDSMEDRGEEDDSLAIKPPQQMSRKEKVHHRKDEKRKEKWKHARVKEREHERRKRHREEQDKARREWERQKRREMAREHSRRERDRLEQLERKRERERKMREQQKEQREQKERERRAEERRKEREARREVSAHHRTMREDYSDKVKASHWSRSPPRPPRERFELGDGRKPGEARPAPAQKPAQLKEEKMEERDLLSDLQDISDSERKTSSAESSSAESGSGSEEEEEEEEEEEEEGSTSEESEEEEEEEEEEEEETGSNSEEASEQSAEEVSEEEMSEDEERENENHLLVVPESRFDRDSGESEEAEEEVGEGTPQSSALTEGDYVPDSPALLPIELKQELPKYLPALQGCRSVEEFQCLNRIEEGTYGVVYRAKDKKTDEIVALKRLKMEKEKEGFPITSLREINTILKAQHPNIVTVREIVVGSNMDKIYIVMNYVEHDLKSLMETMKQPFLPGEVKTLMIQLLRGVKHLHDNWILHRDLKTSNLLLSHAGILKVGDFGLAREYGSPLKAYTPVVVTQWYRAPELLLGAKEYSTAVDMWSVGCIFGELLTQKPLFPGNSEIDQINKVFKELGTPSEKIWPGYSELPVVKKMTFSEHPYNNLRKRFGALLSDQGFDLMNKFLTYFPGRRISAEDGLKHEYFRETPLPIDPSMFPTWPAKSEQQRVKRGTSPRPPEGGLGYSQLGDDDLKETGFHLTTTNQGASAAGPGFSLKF", "assay": "KINOMEscan competitive binding assay", "settings": "10 uM"}, "VEGFR2": {"biological_target": "VEGFR2 (Homo sapiens (Human), UniProt P35968)", "sequence (P35968 20-1356)": "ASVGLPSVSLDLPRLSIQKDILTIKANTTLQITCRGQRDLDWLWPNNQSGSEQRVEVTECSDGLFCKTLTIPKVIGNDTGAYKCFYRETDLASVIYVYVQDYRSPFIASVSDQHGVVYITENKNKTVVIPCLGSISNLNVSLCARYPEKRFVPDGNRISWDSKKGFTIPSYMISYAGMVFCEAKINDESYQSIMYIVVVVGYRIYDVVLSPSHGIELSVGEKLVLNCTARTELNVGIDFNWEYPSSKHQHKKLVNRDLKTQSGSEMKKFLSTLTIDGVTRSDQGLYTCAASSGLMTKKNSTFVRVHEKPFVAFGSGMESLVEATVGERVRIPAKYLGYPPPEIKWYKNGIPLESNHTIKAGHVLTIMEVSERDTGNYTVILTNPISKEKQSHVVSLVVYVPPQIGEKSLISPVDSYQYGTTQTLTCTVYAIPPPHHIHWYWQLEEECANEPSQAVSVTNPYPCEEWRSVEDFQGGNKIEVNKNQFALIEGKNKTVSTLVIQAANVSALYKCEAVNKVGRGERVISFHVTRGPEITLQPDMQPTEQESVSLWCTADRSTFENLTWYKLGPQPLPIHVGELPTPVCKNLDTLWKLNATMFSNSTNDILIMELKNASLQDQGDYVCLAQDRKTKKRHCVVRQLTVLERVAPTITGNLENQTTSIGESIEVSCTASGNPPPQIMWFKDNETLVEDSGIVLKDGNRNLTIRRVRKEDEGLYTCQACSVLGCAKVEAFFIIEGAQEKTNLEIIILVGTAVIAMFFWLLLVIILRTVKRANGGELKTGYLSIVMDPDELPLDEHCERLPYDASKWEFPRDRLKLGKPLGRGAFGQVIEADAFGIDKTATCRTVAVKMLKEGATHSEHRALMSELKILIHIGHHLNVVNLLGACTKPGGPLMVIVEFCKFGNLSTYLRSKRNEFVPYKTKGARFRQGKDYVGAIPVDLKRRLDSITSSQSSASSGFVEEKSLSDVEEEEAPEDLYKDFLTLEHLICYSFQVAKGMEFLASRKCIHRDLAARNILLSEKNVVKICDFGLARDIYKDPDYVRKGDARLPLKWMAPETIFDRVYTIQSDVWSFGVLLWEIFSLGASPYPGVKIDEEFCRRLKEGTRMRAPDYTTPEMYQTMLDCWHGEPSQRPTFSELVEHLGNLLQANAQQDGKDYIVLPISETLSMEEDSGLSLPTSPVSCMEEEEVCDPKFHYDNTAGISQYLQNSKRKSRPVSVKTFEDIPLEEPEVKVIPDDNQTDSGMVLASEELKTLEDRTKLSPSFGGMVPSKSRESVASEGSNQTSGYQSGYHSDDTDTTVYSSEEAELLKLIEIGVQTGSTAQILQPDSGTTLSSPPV", "assay": "KINOMEscan competitive binding assay", "settings": "10 uM", "description": "In vitro kinase screen and competitive binding assay. […] For the competitive binding assay, test compounds were screened at 10 μM against 70 diverse kinase targets for competitive binding using the KINOMEscan™ technology (Ambit Biosciences) (Karaman, et al. (2008) Nature biotechnology 26:127-132). 11-point Kd curves were determined for hits identified during the initial screen."}, "MYO3A": {"biological_target": "MYO3A (Homo sapiens (Human), UniProt Q8NEV4)", "sequence (Q8NEV4 whole entry)": "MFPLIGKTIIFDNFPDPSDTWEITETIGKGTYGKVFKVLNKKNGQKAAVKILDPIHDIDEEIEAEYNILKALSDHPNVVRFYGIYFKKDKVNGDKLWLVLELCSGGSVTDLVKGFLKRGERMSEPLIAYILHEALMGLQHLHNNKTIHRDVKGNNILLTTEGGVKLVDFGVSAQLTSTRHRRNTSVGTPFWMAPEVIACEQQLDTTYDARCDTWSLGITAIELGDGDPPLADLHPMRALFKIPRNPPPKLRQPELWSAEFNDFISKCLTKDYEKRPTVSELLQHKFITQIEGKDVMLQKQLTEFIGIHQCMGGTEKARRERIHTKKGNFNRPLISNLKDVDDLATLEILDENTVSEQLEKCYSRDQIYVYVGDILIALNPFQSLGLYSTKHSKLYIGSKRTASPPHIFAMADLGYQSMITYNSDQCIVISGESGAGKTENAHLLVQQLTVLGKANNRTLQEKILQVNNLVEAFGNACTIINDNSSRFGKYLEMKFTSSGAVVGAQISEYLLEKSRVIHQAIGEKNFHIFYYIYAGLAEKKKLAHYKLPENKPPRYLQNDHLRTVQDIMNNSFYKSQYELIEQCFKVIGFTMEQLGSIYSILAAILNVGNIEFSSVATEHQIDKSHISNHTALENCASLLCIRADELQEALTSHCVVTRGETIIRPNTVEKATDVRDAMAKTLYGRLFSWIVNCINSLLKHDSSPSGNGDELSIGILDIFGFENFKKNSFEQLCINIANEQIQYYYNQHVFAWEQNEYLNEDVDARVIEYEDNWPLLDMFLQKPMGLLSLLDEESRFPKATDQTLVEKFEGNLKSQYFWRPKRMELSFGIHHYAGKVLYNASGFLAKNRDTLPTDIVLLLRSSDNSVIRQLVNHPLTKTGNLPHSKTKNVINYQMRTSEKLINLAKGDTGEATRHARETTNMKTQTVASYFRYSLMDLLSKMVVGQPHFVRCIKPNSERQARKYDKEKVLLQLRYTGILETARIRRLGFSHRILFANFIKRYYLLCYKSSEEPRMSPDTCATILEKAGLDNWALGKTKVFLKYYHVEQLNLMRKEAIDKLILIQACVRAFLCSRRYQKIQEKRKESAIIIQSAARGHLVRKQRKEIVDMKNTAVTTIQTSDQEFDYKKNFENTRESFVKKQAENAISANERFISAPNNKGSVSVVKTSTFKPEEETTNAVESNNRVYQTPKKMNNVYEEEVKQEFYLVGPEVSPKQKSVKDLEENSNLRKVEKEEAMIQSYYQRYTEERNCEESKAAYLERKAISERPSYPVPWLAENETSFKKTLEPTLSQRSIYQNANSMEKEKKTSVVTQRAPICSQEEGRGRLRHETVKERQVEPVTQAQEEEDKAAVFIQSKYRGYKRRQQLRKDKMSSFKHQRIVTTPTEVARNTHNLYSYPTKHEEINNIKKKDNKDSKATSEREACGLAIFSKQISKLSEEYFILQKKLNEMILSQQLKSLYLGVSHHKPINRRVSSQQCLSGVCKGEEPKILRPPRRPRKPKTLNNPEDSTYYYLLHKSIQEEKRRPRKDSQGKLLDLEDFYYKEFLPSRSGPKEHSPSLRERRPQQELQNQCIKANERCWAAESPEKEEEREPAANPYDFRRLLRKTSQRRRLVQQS", "assay": "KINOMEscan competitive binding assay", "settings": "10 uM"}, "MEK S298": {"test_system": "MEK S298", "assay": "PAK-mediated MEK S298 phosphorylation in endothelial cells", "format": "cell-based, human", "settings": "HUVECs stimulated with bFGF or VEGF, 5 μM", "method": "FIG. 1A-1F illustrate molecular modeling and assay screening to compounds for dual targeting of PDGFRβ and RAF. (FIG. 1A) Molecular modeling of the amino-triazole based small molecules in PDGFRβ and RAF, respectively. […] A homology model of PDGFRβ was created with a structurally-related family member (VEGFR2, PDB 1y6b). […] To autophosphorylation, immunoblots were carried out with a phospho-tyrosine antibody. Membranes were stripped and reprobed for total PDGFRβ levels. […] (FIG. 1D) Structure activity relationships of the amino-triazole based small molecules comparing both PDGFRβ and B-RAF. […] Curves represent the average of 3 separate experiments, error bars represent ±SEM.\nFollowing stimulation with bFGF, VEGFA or PDGF-BB, cells were washed 1× with ice-cold PBS and lysed in RIPA buffer. For the PDGFRβ autophosphorylation assay in VSMCs, 500 μg of protein from lysates was incubated with 3 μg of anti-PDGFRβ (sc-432, Santa Cruz Biotechnology) for 1 h at 4° C. and subsequently tumbled overnight with protein A/G beads (Pierce) for immunoprecipitation. […] HRP conjugated primary or secondary Abs were detected with SuperSignal ECL (Pierce). […]"}}}
{"smiles": "CSc1nc(N)cc(Oc2ccc(-c3nnc(Nc4cccc(C(F)(F)F)c4)[nH]3)cc2)n1", "note": "[Compound 6]", "values": [{"measurement": "% Control", "setting": "RAF1", "result": 52, "unit": "%"}, {"measurement": "body weight", "setting": "[1]; bid", "result": "no weight loss"}, {"measurement": "mean vessel length/tumor volume", "setting": "[1]; bid (vehicle 2.5)", "result": 0.2, "unit": "mm/mm^3"}, {"measurement": "tumor growth", "setting": "[1]; bid, from day 3, 12 days post SOI", "result": "completely suppressed"}, {"measurement": "average tumor weight", "setting": "[1]; resected on day 15, bid (vehicle 74.1 mg)", "result": 26.7, "unit": "mg"}, {"measurement": "% Control", "setting": "SRC", "result": 90, "unit": "%"}, {"measurement": "% Control", "setting": "CDC2L2", "result": 83, "unit": "%"}, {"measurement": "% Control", "setting": "VEGFR2", "result": 80, "unit": "%"}, {"measurement": "% Control", "setting": "MYO3A", "result": 94, "unit": "%"}, {"measurement": "PAK-mediated phosphorylation on MEK S298", "setting": "MEK S298", "result": "did not block"}]}
